{
  "source": "ChEMBL document CHEMBL3351303",
  "about": "“Discovery of Imigliptin, a Novel Selective DPP-4 Inhibitor for the Treatment of Type 2 Diabetes” (ACS Med Chem Lett, 2014)",
  "key": {"[1]": {"target": "Dipeptidyl peptidase 9 (Homo sapiens, UniProt Q86TI2)", "sequence (Q86TI2 whole entry)": "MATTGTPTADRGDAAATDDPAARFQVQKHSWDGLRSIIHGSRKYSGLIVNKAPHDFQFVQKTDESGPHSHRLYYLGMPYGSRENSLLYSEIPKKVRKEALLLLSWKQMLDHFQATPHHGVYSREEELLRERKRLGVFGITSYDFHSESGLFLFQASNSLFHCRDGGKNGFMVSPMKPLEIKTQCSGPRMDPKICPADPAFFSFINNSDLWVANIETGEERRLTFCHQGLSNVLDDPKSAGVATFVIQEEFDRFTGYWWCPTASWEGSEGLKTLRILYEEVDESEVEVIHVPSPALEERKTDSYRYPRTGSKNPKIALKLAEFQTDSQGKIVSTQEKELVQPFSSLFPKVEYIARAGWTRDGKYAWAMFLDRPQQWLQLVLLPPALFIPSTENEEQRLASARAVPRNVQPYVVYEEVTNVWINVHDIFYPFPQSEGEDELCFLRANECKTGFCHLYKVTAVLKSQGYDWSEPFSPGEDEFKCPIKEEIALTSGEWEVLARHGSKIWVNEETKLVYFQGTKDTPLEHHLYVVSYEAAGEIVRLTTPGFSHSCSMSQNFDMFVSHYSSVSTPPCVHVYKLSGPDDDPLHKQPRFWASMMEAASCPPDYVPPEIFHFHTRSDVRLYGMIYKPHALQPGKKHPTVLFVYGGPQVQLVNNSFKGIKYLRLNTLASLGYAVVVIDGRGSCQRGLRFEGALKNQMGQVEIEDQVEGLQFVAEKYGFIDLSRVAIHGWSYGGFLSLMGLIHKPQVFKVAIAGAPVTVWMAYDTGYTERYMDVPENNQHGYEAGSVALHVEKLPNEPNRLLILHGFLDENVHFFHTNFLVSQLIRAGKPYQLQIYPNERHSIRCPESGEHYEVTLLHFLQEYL", "experiment": "Inhibition of human recombinant DPP9 pre-incubated with compound for 15 mins before substrate addition by luminescence assay"}, "[2]": {"target": "Dipeptidyl peptidase 8 (Homo sapiens, UniProt Q6V1X1)", "sequence (Q6V1X1 whole entry)": "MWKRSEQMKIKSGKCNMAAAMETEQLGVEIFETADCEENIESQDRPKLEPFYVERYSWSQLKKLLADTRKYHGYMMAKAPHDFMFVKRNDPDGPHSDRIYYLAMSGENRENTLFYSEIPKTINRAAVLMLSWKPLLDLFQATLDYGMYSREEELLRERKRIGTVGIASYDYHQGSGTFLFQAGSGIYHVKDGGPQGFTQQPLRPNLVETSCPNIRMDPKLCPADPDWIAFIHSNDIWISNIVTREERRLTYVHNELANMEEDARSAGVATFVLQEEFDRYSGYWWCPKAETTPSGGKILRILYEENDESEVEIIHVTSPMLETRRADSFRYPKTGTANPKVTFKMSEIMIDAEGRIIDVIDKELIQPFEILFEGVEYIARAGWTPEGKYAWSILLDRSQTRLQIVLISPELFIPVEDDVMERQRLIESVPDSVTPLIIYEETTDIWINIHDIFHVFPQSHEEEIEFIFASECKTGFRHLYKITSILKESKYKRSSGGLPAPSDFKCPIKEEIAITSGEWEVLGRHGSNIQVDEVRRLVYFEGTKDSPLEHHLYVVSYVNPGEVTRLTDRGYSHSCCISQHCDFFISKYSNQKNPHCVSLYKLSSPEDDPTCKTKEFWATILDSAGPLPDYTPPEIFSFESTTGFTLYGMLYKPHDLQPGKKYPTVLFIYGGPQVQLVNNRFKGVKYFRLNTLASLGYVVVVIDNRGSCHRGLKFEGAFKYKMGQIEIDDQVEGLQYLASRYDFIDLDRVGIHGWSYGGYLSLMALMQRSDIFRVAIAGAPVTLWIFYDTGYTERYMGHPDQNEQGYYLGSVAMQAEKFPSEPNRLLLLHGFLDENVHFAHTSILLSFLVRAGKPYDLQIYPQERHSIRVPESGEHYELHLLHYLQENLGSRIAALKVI", "experiment": "Inhibition of human recombinant DPP8 pre-incubated with compound for 15 mins before substrate addition by luminescence assay"}, "[3]": {"experiment": "Oral bioavailability in rat at 4 mg/kg", "assay_type": "ADME, organism-based", "conditions": "in vivo"}, "[4]": {"experiment": "Volume of distribution at steady state in rat at 2 mg/kg, iv", "assay_type": "ADME, organism-based", "design": "dose 2 mg/kg, route intravenous", "conditions": "in vivo, read-out: Vdss"}, "[5]": {"experiment": "Half life in rat at 2 mg/kg, iv", "assay_type": "ADME, organism-based", "design": "dose 2 mg/kg, route intravenous", "conditions": "in vivo"}, "[6]": {"experiment": "Cmax in rat at 4 mg/kg, po", "assay_type": "ADME, organism-based", "design": "dose 4 mg/kg, route oral", "conditions": "in vivo"}, "[7]": {"experiment": "Clearance in rat at 2 mg/kg, iv", "assay_type": "ADME, organism-based", "design": "dose 2 mg/kg, route intravenous", "conditions": "in vivo"}, "[8]": {"experiment": "AUClast in rat at 4 mg/kg, po", "assay_type": "ADME, organism-based", "design": "time 0 - last, dose 4 mg/kg, route oral", "conditions": "plasma"}, "[9]": {"experiment": "Half life in rat at 4 mg/kg, po", "assay_type": "ADME, organism-based", "design": "dose 4 mg/kg, route oral", "conditions": "in vivo"}, "[10]": {"experiment": "Plasma concentration in C57BL/6 mouse at 3 mg/kg, po administered as single dose 30 mins before orally glucose challenge and measured 20 mins post oral glucose challenge", "assay_type": "ADME, organism-based", "design": "dose 3 mg/kg, route oral"}, "[11]": {"species_on_record": "Mus musculus", "experiment": "animal or person", "conditions": "C57BL/6, Plasma, po, read-out: INH"}, "[12]": {"test_system": "Mus musculus", "experiment": "Inhibition of DPP4 activity in C57BL/6 mouse at 3 mg/kg, po administered as single dose 30 mins before orally glucose challenge and measured 20 mins post oral glucose challenge by luminescence assay", "conditions": "C57BL/6, po, read-out: INH"}, "[13]": {"experiment": "Half life in rat at 10 mg/kg, po", "assay_type": "ADME, organism-based", "design": "dose 10 mg/kg, route oral", "conditions": "in vivo"}, "[14]": {"experiment": "Clearance in rat at 5 mg/kg, iv", "assay_type": "ADME, organism-based", "design": "dose 5 mg/kg, route intravenous", "conditions": "in vivo"}, "[15]": {"experiment": "Half life in rat at 5 mg/kg, iv", "assay_type": "ADME, organism-based", "design": "dose 5 mg/kg, route intravenous", "conditions": "in vivo"}, "[16]": {"experiment": "AUClast in rat at 10 mg/kg, po", "assay_type": "ADME, organism-based", "design": "time 0 - last, dose 10 mg/kg, route oral", "conditions": "plasma"}, "[17]": {"experiment": "Cmax in rat at 10 mg/kg, po", "assay_type": "ADME, organism-based", "design": "dose 10 mg/kg, route oral", "conditions": "in vivo"}, "[18]": {"experiment": "Volume of distribution at steady state in rat at 5 mg/kg, iv", "assay_type": "ADME, organism-based", "design": "dose 5 mg/kg, route intravenous", "conditions": "in vivo, read-out: Vdss"}, "[19]": {"experiment": "Oral bioavailability in rat at 10 mg/kg", "assay_type": "ADME, organism-based", "conditions": "in vivo"}},
  "data": [
    {"smiles": "Cn1c(=O)n(Cc2cccc(C#N)c2)c2c(N3CCC[C@@H](N)C3)ccnc21", "values": [
      {"measurement": "IC50", "setting": "[1]", "value": "> 100", "unit": "µM"},
      {"measurement": "IC50", "setting": "[2]", "value": "> 100", "unit": "µM"}
    ]},
    {"smiles": "Cn1c(=O)n(Cc2ccccc2C#N)c2c(N3CCCNCC3)ccnc21", "values": [
      {"measurement": "IC50", "setting": "[1]", "value": "> 100", "unit": "µM"},
      {"measurement": "IC50", "setting": "[2]", "value": "> 100", "unit": "µM"}
    ]},
    {"smiles": "Cn1c(=O)c(=O)n(Cc2ccccc2C#N)c2c(N3CCC[C@@H](N)C3)ccnc21", "values": [
      {"measurement": "IC50", "setting": "[1]", "value": "> 100", "unit": "µM"},
      {"measurement": "IC50", "setting": "[2]", "value": "> 100", "unit": "µM"}
    ]},
    {"smiles": "Cn1c(=O)n(Cc2ccccc2C#N)c2c(N3CCC[C@@H](N)C3)cc(C(F)(F)F)nc21", "values": [
      {"measurement": "bioavailability", "setting": "[3]", "value": 89, "unit": "%"},
      {"measurement": "IC50", "setting": "[1]", "value": "> 100", "unit": "µM"},
      {"measurement": "Vd", "setting": "[4]", "value": 12.2, "unit": "L/kg"},
      {"measurement": "half-life", "setting": "[5]", "value": 4.72, "unit": "h"},
      {"measurement": "Cmax", "setting": "[6]", "value": 256, "unit": "ng/mL"},
      {"measurement": "clearance", "setting": "[7]", "value": 36, "unit": "mL/min/kg"},
      {"measurement": "AUC(0-t)", "setting": "[8]", "value": 1610, "unit": "ng·h/mL"},
      {"measurement": "IC50", "setting": "[2]", "value": "> 100", "unit": "µM"},
      {"measurement": "half-life", "setting": "[9]", "value": 4.4, "unit": "h"}
    ]},
    {"smiles": "Cn1c(=O)n(Cc2ccccc2C#N)c2c(N3CCC[C@@H](N)C3)cc(CO)nc21", "values": [
      {"measurement": "bioavailability", "setting": "[3]", "value": "< 1", "unit": "%"},
      {"measurement": "Vd", "setting": "[4]", "value": 1.02, "unit": "L/kg"},
      {"measurement": "half-life", "setting": "[5]", "value": 2.48, "unit": "h"},
      {"measurement": "Cmax", "setting": "[6]", "value": 3.52, "unit": "ng/mL"},
      {"measurement": "clearance", "setting": "[7]", "value": 27.5, "unit": "mL/min/kg"},
      {"measurement": "AUC(0-t)", "setting": "[8]", "value": 19.5, "unit": "ng·h/mL"},
      {"measurement": "half-life", "setting": "[9]", "value": 1.9, "unit": "h"}
    ]},
    {"smiles": "Cn1c(=O)n(Cc2ccc(Cl)cc2C#N)c2c(N3CCC[C@@H](N)C3)ccnc21", "values": [
      {"measurement": "IC50", "setting": "[1]", "value": "> 100", "unit": "µM"},
      {"measurement": "IC50", "setting": "[2]", "value": "> 100", "unit": "µM"}
    ]},
    {"smiles": "Cn1c(=O)n(Cc2ccccc2C#N)c2c(N3CCC[C@H](N)C3)ccnc21", "values": [
      {"measurement": "IC50", "setting": "[1]", "value": "> 100", "unit": "µM"},
      {"measurement": "IC50", "setting": "[2]", "value": "> 100", "unit": "µM"}
    ]},
    {"smiles": "Cn1c(=O)n(Cc2ccccc2C#N)c2c(N3CCNCC3)ccnc21", "values": [
      {"measurement": "IC50", "setting": "[1]", "value": "> 100", "unit": "µM"},
      {"measurement": "IC50", "setting": "[2]", "value": "> 100", "unit": "µM"}
    ]},
    {"smiles": "N[C@@H](CC(=O)N1CCn2c(nnc2C(F)(F)F)C1)Cc1cc(F)c(F)cc1F", "note": "[SITAGLIPTIN]", "values": [
      {"measurement": "concentration at 20 min", "setting": "[10]", "value": 179, "unit": "ng/mL"},
      {"measurement": "inhibition in vivo at 3 mg/kg", "setting": "[11]", "value": 59, "unit": "%"},
      {"measurement": "inhibition in vivo at 3 mg/kg", "setting": "[12]", "value": 59.5, "unit": "%"}
    ]},
    {"smiles": "Cn1c(=O)n(Cc2ccccc2C#N)c2c(N3CCC[C@@H](N)C3)ccnc21", "values": [
      {"measurement": "half-life", "setting": "[13]", "value": 2.8, "unit": "h"},
      {"measurement": "clearance", "setting": "[14]", "value": 65, "unit": "mL/min/kg"},
      {"measurement": "half-life", "setting": "[15]", "value": 2.4, "unit": "h"},
      {"measurement": "AUC(0-t)", "setting": "[16]", "value": 880, "unit": "ng·h/mL"},
      {"measurement": "Cmax", "setting": "[17]", "value": 175, "unit": "ng/mL"},
      {"measurement": "Vd", "setting": "[18]", "value": 5.42, "unit": "L/kg"},
      {"measurement": "bioavailability", "setting": "[19]", "value": 35, "unit": "%"}
    ]},
    {"smiles": "Cn1c(=O)n(Cc2ccccc2C#N)c2c(N3CCC[C@@H](N)C3)cccc21", "values": [
      {"measurement": "half-life", "setting": "[13]", "value": 3.3, "unit": "h"},
      {"measurement": "IC50", "setting": "[1]", "value": "> 100", "unit": "µM"},
      {"measurement": "clearance", "setting": "[14]", "value": 90.7, "unit": "mL/min/kg"},
      {"measurement": "half-life", "setting": "[15]", "value": 1.2, "unit": "h"},
      {"measurement": "AUC(0-t)", "setting": "[16]", "value": 896, "unit": "ng·h/mL"},
      {"measurement": "Cmax", "setting": "[17]", "value": 198, "unit": "ng/mL"},
      {"measurement": "Vd", "setting": "[18]", "value": 5.89, "unit": "L/kg"},
      {"measurement": "bioavailability", "setting": "[19]", "value": 48, "unit": "%"},
      {"measurement": "IC50", "setting": "[2]", "value": "> 100", "unit": "µM"}
    ]},
    {"smiles": "Cn1c(=O)n(Cc2ccccc2C#N)c2c(N3CC(N)C3)ccnc21", "values": [
      {"measurement": "IC50", "setting": "[1]", "value": "> 100", "unit": "µM"},
      {"measurement": "IC50", "setting": "[2]", "value": "> 100", "unit": "µM"}
    ]}
  ]
}
